Measurements reported in the NIST ThermoML archive (doi:10.1016/j.fluid.2004.09.013).
Numbers after ± are expanded uncertainties.

Details: for mass density: Fluid (supercritical or subcritical phases), Vibrating tube method; for vapor or sublimation pressure: Liquid

`C/C=C\C` [(Z)-2-butene] gave a mass density (273.24 K, 530 kPa) of 644.99 ± 1.3 kg/m3, a mass density (273.24 K, 5019 kPa) of 650.08 ± 1.3 kg/m3 and a mass density (273.24 K, 10002 kPa) of 655.33 ± 1.3 kg/m3. For the same compound, the mass density (273.24 K, 15013 kPa) was 660.23 ± 1.4 kg/m3, the mass density (273.24 K, 19996 kPa) was 664.79 ± 1.4 kg/m3 and the mass density (273.24 K, 24988 kPa) was 669.08 ± 1.4 kg/m3. It also gave a mass density (273.24 K, 29997 kPa) of 673.15 ± 1.4 kg/m3, a mass density (273.24 K, 35005 kPa) of 677.01 ± 1.5 kg/m3 and a mass density (273.24 K, 39991 kPa) of 680.66 ± 1.5 kg/m3. For the same compound, the mass density (278.25 K, 531 kPa) was 639.3 ± 1.3 kg/m3, the mass density (278.25 K, 4987 kPa) was 644.61 ± 1.3 kg/m3 and the mass density (278.25 K, 10000 kPa) was 650.13 ± 1.3 kg/m3. For the same compound, the mass density (278.25 K, 15004 kPa) was 655.23 ± 1.4 kg/m3, the mass density (278.25 K, 19984 kPa) was 659.97 ± 1.4 kg/m3 and the mass density (278.25 K, 25004 kPa) was 664.45 ± 1.4 kg/m3. For the same compound, the mass density (278.25 K, 30003 kPa) was 668.65 ± 1.4 kg/m3, the mass density (278.25 K, 34993 kPa) was 672.62 ± 1.4 kg/m3 and the mass density (278.25 K, 39994 kPa) was 676.39 ± 1.5 kg/m3. For the same compound, the mass density (283.26 K, 528 kPa) was 633.56 ± 1.3 kg/m3, the mass density (283.26 K, 5005 kPa) was 639.17 ± 1.3 kg/m3 and the mass density (283.26 K, 9984 kPa) was 644.91 ± 1.3 kg/m3. For the same compound, the mass density (283.26 K, 14999 kPa) was 650.24 ± 1.4 kg/m3, the mass density (283.26 K, 19995 kPa) was 655.17 ± 1.4 kg/m3 and the mass density (283.26 K, 25010 kPa) was 659.81 ± 1.4 kg/m3. The mass density (283.26 K, 29992 kPa) was 664.14 ± 1.4 kg/m3, the mass density (283.26 K, 35004 kPa) was 668.25 ± 1.4 kg/m3 and the mass density (283.26 K, 39997 kPa) was 672.15 ± 1.5 kg/m3. For the same compound, the mass density (288.27 K, 531 kPa) was 627.75 ± 1.3 kg/m3, the mass density (288.27 K, 4995 kPa) was 633.64 ± 1.3 kg/m3 and the mass density (288.27 K, 10005 kPa) was 639.69 ± 1.3 kg/m3. For the same compound, the mass density (288.27 K, 14999 kPa) was 645.22 ± 1.3 kg/m3, the mass density (288.27 K, 20014 kPa) was 650.37 ± 1.4 kg/m3 and the mass density (288.27 K, 25005 kPa) was 655.16 ± 1.4 kg/m3. The mass density (288.27 K, 29991 kPa) was 659.64 ± 1.4 kg/m3, the mass density (288.27 K, 34992 kPa) was 663.87 ± 1.4 kg/m3 and the mass density (288.27 K, 40003 kPa) was 667.9 ± 1.5 kg/m3. The “vapor or sublimation pressure” value (290.72 K) was 166.5 ± 1.1 kPa, the mass density (293.28 K, 532 kPa) was 621.87 ± 1.3 kg/m3 and the mass density (293.28 K, 4990 kPa) was 628.07 ± 1.3 kg/m3. The mass density (293.28 K, 10006 kPa) was 634.4 ± 1.3 kg/m3, the mass density (293.28 K, 20011 kPa) was 645.53 ± 1.4 kg/m3 and the mass density (293.28 K, 25006 kPa) was 650.48 ± 1.4 kg/m3. For the same compound, the mass density (293.28 K, 30000 kPa) was 655.14 ± 1.4 kg/m3, the mass density (293.28 K, 34996 kPa) was 659.52 ± 1.4 kg/m3 and the mass density (293.28 K, 39986 kPa) was 663.65 ± 1.5 kg/m3. For the same compound, the mass density (293.29 K, 14995 kPa) was 640.16 ± 1.3 kg/m3, the “vapor or sublimation pressure” value (297.95 K) was 212.17 ± 1.4 kPa and the mass density (298.29 K, 29993 kPa) was 650.63 ± 1.4 kg/m3. It also gave a mass density (298.3 K, 528 kPa) of 615.89 ± 1.2 kg/m3, a mass density (298.3 K, 5009 kPa) of 622.46 ± 1.3 kg/m3 and a mass density (298.3 K, 9991 kPa) of 629.06 ± 1.3 kg/m3. For the same compound, the mass density (298.3 K, 14998 kPa) was 635.11 ± 1.3 kg/m3, the mass density (298.3 K, 20004 kPa) was 640.67 ± 1.4 kg/m3 and the mass density (298.3 K, 24996 kPa) was 645.82 ± 1.4 kg/m3. For the same compound, the mass density (298.3 K, 34987 kPa) was 655.14 ± 1.4 kg/m3, the mass density (298.3 K, 40002 kPa) was 659.43 ± 1.5 kg/m3 and the mass density (303.31 K, 568 kPa) was 609.88 ± 1.2 kg/m3. The mass density (303.31 K, 4986 kPa) was 616.72 ± 1.3 kg/m3, the mass density (303.31 K, 9987 kPa) was 623.69 ± 1.3 kg/m3 and the mass density (303.31 K, 15011 kPa) was 630.03 ± 1.3 kg/m3. It also gave a mass density (303.31 K, 20004 kPa) of 635.8 ± 1.3 kg/m3, a mass density (303.31 K, 25003 kPa) of 641.15 ± 1.4 kg/m3 and a mass density (303.31 K, 29993 kPa) of 646.12 ± 1.4 kg/m3. The mass density (303.31 K, 34986 kPa) was 650.78 ± 1.4 kg/m3, the mass density (303.31 K, 40003 kPa) was 655.2 ± 1.5 kg/m3 and the “vapor or sublimation pressure” value (306.92 K) was 280.95 ± 1.9 kPa. The mass density (308.32 K, 610 kPa) was 603.77 ± 1.2 kg/m3, the mass density (308.32 K, 5003 kPa) was 610.96 ± 1.2 kg/m3 and the mass density (308.32 K, 9990 kPa) was 618.26 ± 1.3 kg/m3. For the same compound, the mass density (308.32 K, 14985 kPa) was 624.84 ± 1.3 kg/m3, the mass density (308.32 K, 19996 kPa) was 630.86 ± 1.3 kg/m3 and the mass density (308.32 K, 24991 kPa) was 636.41 ± 1.4 kg/m3. It also gave a mass density (308.32 K, 29986 kPa) of 641.56 ± 1.4 kg/m3, a mass density (308.32 K, 34983 kPa) of 646.37 ± 1.4 kg/m3 and a mass density (308.32 K, 40002 kPa) of 650.92 ± 1.4 kg/m3. For the same compound, the mass density (313.2 K, 842 kPa) was 598.01 ± 1.2 kg/m3, the mass density (313.2 K, 25002 kPa) was 631.74 ± 1.4 kg/m3 and the mass density (313.21 K, 4983 kPa) was 605.15 ± 1.2 kg/m3. It also gave a mass density (313.21 K, 9999 kPa) of 612.86 ± 1.3 kg/m3, a mass density (313.21 K, 14998 kPa) of 619.73 ± 1.3 kg/m3 and a mass density (313.21 K, 19993 kPa) of 625.98 ± 1.3 kg/m3. For the same compound, the mass density (313.21 K, 29990 kPa) was 637.05 ± 1.4 kg/m3, the mass density (313.21 K, 34989 kPa) was 642.02 ± 1.4 kg/m3 and the mass density (313.21 K, 39990 kPa) was 646.68 ± 1.4 kg/m3. For the same compound, the “vapor or sublimation pressure” value (316.39 K) was 369.5 ± 2.4 kPa, the mass density (318.21 K, 898 kPa) was 591.77 ± 1.2 kg/m3 and the mass density (318.21 K, 4989 kPa) was 599.26 ± 1.2 kg/m3. It also gave a mass density (318.21 K, 9999 kPa) of 607.36 ± 1.2 kg/m3, a mass density (318.21 K, 14989 kPa) of 614.54 ± 1.3 kg/m3 and a mass density (318.21 K, 19986 kPa) of 621.05 ± 1.3 kg/m3. The mass density (318.21 K, 24990 kPa) was 627.03 ± 1.4 kg/m3, the mass density (318.21 K, 30002 kPa) was 632.56 ± 1.4 kg/m3 and the mass density (318.21 K, 34994 kPa) was 637.68 ± 1.4 kg/m3. For the same compound, the mass density (318.21 K, 39987 kPa) was 642.47 ± 1.4 kg/m3, the mass density (323.21 K, 965 kPa) was 585.41 ± 1.2 kg/m3 and the mass density (323.21 K, 4984 kPa) was 593.22 ± 1.2 kg/m3. For the same compound, the mass density (323.21 K, 9985 kPa) was 601.76 ± 1.2 kg/m3, the mass density (323.21 K, 14986 kPa) was 609.3 ± 1.3 kg/m3 and the mass density (323.21 K, 20004 kPa) was 616.11 ± 1.3 kg/m3. It also gave a mass density (323.21 K, 25000 kPa) of 622.31 ± 1.3 kg/m3, a mass density (323.21 K, 29993 kPa) of 628.01 ± 1.4 kg/m3 and a mass density (323.21 K, 34993 kPa) of 633.32 ± 1.4 kg/m3. The mass density (323.21 K, 40000 kPa) was 638.29 ± 1.4 kg/m3, the “vapor or sublimation pressure” value (326.09 K) was 483.32 ± 3.1 kPa and the mass density (328.21 K, 14983 kPa) was 604.03 ± 1.3 kg/m3. It also gave a mass density (328.21 K, 25010 kPa) of 617.59 ± 1.3 kg/m3, a mass density (328.21 K, 34998 kPa) of 628.95 ± 1.4 kg/m3 and a mass density (328.21 K, 40002 kPa) of 634.07 ± 1.4 kg/m3. The mass density (328.22 K, 1031 kPa) was 578.91 ± 1.2 kg/m3, the mass density (328.22 K, 4985 kPa) was 587.11 ± 1.2 kg/m3 and the mass density (328.22 K, 9992 kPa) was 596.13 ± 1.2 kg/m3. The mass density (328.22 K, 19995 kPa) was 611.12 ± 1.3 kg/m3, the mass density (328.22 K, 29991 kPa) was 623.48 ± 1.4 kg/m3 and the “vapor or sublimation pressure” value (331.25 K) was 549.64 ± 3.6 kPa. For the same compound, the mass density (333.22 K, 1102 kPa) was 572.28 ± 1.2 kg/m3, the mass density (333.22 K, 4993 kPa) was 580.89 ± 1.2 kg/m3 and the mass density (333.22 K, 10002 kPa) was 590.44 ± 1.2 kg/m3.
